The values that follow come from article PMC3384297 (2012).

Test in all cases: FRET melting
Assay [1] concerns F21D (DNA, G4) GGGTTAGGGTTAGGGTTAGGG
As to conditions: 5 mM K+, 95 mM Li+; 10 mM lithium cacodylate pH 7.2; 0.2 µM DNA, 1 µM porphyrin.

The subject of assay [2] is FGD (DNA, G4) GGGTGTGGGTGTGGGTGTGGG
As to conditions: 5 mM K+, 95 mM Li+; 10 mM lithium cacodylate pH 7.2; 0.2 µM DNA, 1 µM porphyrin.

Assay [3] has as its system F21D (DNA, G4) GGGTTAGGGTTAGGGTTAGGG
The following applies: 5 mM K+, 95 mM Li+; 10 mM Li cacodylate pH 7.2; 0.2 µM DNA, 1 µM NMM.

The subject of assay [4] is FGD (DNA, G4) GGGTGTGGGTGTGGGTGTGGG
The following applies: 5 mM K+, 95 mM Li+; 10 mM Li cacodylate pH 7.2; 0.2 µM DNA, 1 µM NMM.

For the molecule `C=CC1=C(C)c2cc3[nH]c(cc4nc(cc5[nH]c(cc1n2)c(C)c5CCC(=O)O)C(CCC(=O)O)=C4C)c(C)c3C=C`, the ΔT1/2 in assay [1] and in assay [2] was 0.2 ± 0.3 °C each time.

As for `C=Cc1c(C)c2cc3c(C=C)c(C)c(cc4nc(cc5nc(cc1[nH]2)C(C)=C5CCC(=O)O)C(CCC(=O)O)=C4C)n3C`, the figures for the ΔT1/2 in assay [1] and in assay [2] were 8.5 ± 0.6 °C and 9.8 ± 0.3 °C, respectively.

Turning to `CCC1=C(C)c2cc3[nH]c(cc4nc(cc5[nH]c(cc1n2)c(C)c5CC)C(C)=C4CCC(=O)O)c(CCC(=O)O)c3C`, the ΔT1/2 in assay [1] came out at 0.2 ± 0.3 °C; in assay [2], 0.8 ± 0.3 °C.

`CCc1c(C)c2cc3nc(cc4nc(cc5c(CC)c(C)c(cc1[nH]2)n5C)C(C)=C4CCC(=O)O)C(CCC(=O)O)=C3C`: the ΔT1/2 stood at 14 ± 2 °C in assay [3] and 12.5 ± 0.3 °C in assay [4].

For `C[n+]1ccc(-c2c3nc(c(-c4cc[n+](C)cc4)c4ccc([n-]4)c(-c4cc[n+](C)cc4)c4nc(c(-c5cc[n+](C)cc5)c5ccc2[n-]5)C=C4)C=C3)cc1.[Zn+2]`, the ΔT1/2 in assay [1] was 23 ± 1 °C; in assay [2], 22.1 ± 0.9 °C.

With `C[n+]1ccc(-c2c3nc(c(-c4cc[n+](C)cc4)c4ccc([nH]4)c(-c4cc[n+](C)cc4)c4nc(c(-c5cc[n+](C)cc5)c5ccc2[nH]5)C=C4)C=C3)cc1`, the ΔT1/2 in assay [1] was 34 ± 2 °C; in assay [2] it was 31 ± 2 °C.
